Laboratory results reported in US9370189B2, “Controlling Pseudomonas aeruginosa persister cells with GM-CSF” (priority 2012, dated 2016).

System: planktonic cells of PDO300
Test: Synergistic effect of GM-CSF, tobramycin and alginate lyase on planktonic cells of PDO300
Type: cell-based, Pseudomonas aeruginosa
Text: This Example describes the use of alginate lyase as an enzyme to break down the extra alginate in order to understand the effect of the presence of alginate in PDO300 on the GM-CSF and antibiotic treatment.
To improve the effects of GM-CSF and antibiotics on the alginate overproducing PDO300, alginate lyase was used as an enzyme to break down the extra alginate. Alginate lyase is an enzyme which depolymerizes the alginate polymer by […] reaction. The alginate lyase used in the experiment was alginate lyase from Flavobacterium sp. (Sigma, catalog no. A1603-100MG). The experimental method was similar as mentioned above for the combined effect of GM-CSF and antibiotic. The alginate lyase was added as 0.05 mg/mL.
In brief, the experiment was performed in exponential phase with an optical density at 600 nm (OD600) of 0.3 to 0.4. After preparing an overnight culture of the tested strain in 25 ml LB medium, a subculture was prepared with an OD600 of 0.01 in 50 mL LB medium. The subculture was incubated at 37° C. with shaking at 200 rpm for 3-4 h, till OD600 of 0.3 to 0.4 was reached. The exponential phase subculture was then divided equally into two centrifuge tubes. The subcultures were washed twice with 0.85% NaCl buffer by vortexing and then centrifuging at 4° C., 8000 rpm for 10 min each time. The washed subcultures were resuspended in 25 mL 0.85% NaCl buffer and vortexed gently for 1 min. One of the subculture was selected for isolation of persisters by adding 200 μg/mL ciprofloxacin. After adding the antibiotic, the subculture was incubated at 37° C. with shaking at 200 rpm for 3.5 h. The other subculture was used to quantify the total number of viable cells.
For testing the direct impact of GM-CSF on the total viable cells, 1 mL of the subculture was added in 24 microcentrifuge tubes; 12 were control and the other 12 were GM-CSF treatment samples. In the treatment samples, GM-CSF was added to a concentration of 2.43 pg/mL. The control samples were supplemented with the same concentration of PBS and BSA as present in 2.43 pg/mL GM-CSF samples. […]

GM-CSF: granulocyte macrophage-colony stimulating factor, a cytokine secreted by macrophages; recombinant human GM-CSF (R&D systems) in binding tests
persisters changed by (planktonic PDO300, 2.43 pg/mL GM-CSF and 50 μg/mL tobramycin): −63.6±5.4% | persisters changed by (planktonic PDO300, 2.43 pg/mL GM-CSF, 50 μg/mL tobramycin and 0.05 mg/mL Alginate lyase): −74.1±3.3% | persisters changed by (planktonic cells (Example on PDO300; sentence prints PAO1), 2.43 pg/mL GM-CSF alone): −15.0±4.2%
